Like-named read-outs stand apart in the source and are kept apart here.

The target in assay [1] is T1, Mcl-1 (Mus musculus, UniProt P97287, F227L/F267C/G222D/K236S/Q303E/S261T/T274S/V232I/V262I). The experiment in a line: FITC-NoxaB Mcl-1 competitive binding fluorescence anisotropy. In general terms: Polarisation of emitted light reports the rotation of a fluorescent probe.
The target in assay [2] is T1, Mcl-1. The note with it: Mcl-1/Noxa; parent peptide; cited from earlier work.

T1 sequence (P97287 152-308 G222D/F227L/V232I/K236S/S261T/V262I/F267C/T274S/Q303E): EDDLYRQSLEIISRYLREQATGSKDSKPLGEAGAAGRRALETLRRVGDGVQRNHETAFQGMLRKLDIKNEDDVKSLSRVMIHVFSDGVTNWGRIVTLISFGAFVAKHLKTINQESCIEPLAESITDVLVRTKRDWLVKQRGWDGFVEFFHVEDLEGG

The IC50 is the concentration at which inhibition is half-maximal. Take `CC(=O)O[C@@H]1[C@@H](OC(C)=O)[C@H](OC(C)=O)CO[C@H]1n1cc(-c2ccc(Cl)cc2)nn1` [compound 7, (2R,3R,4S,5R)-2-(4-(4-chlorophenyl)-1H-1,2,3-triazol-1-yl)tetrahydro-2H-pyran-3,4,5-triyl triacetate]: in assay [1], the IC50 was determined as 4.39 µM.
With `CC(=O)O[C@@H]1[C@@H](OC(C)=O)[C@H](OC(C)=O)CO[C@H]1n1cc(-c2ccc(Br)cc2)nn1` [compound 8, (2R,3R,4S,5R)-2-(4-(4-bromophenyl)-1H-1,2,3-triazol-1-yl)tetrahydro-2H-pyran-3,4,5-triyl triacetate], in assay [1], the IC50 stood at 7.03 µM.
Turning to “AAQLRRIGDKVNLRQKLLN [NoxaB-(75–93)-C75A peptide]”, in assay [2], the IC50 is 650 nM.

Values taken from PMC8341744 (RSC Chemical Biology, 2020).
